Test results published in patent publication US20120004282A1, “RNA Interference Mediated Inhibition of the Intercellular Adhesion Molecule 1 (ICAM-1) Gene Expression Using Short Interfering Nucleic Acid (siNA)” (Merck Sharp & Dohme Corp,, priority 2009, published 2012).
[invAb] = inverted abasic unit; m = 2'-O-methyl; r = 2'-OH (RNA); f = 2'-fluoro

What was measured:
ICAM-1 mRNA = ICAM-1 mRNA knock-down in transfected Calu-1 cells (Taqman RT-PCR); type: cell-based, human; conditions: for % KD Human: Calu-1 cells, 10 nM siNA, 24 hrs post-transfection, relative to non-targeting control; for % KD Human / % KD ICAM-1 10 nM / % KD at 10 nM / Max % KD in DRC: mean ± S.D.; for IC50: ICAM-1 mRNA knockdown, 12 concentrations 0.083 fM to 30 nM; for IC50 / % KD at 10 nM / Max % KD in DRC: human cells; for % KD ICAM-1 10 nM / % KD at 10 nM / Max % KD in DRC: ICAM-1 mRNA; for % KD ICAM-1 10 nM: three independent experiments; for % KD at 10 nM: three separate experiments; for Max % KD in DRC: dose response 0.083 fM to 30 nM
[1] = test system: human ICAM-2 mRNA transcript; experiment: ICAM-2 mRNA specificity screen in human cells (Taqman RT-PCR); type: cell-based; conditions: mean ± S.D., three independent experiments
Experimental: Calu-1 (human; ATCC cat# HTB-54): Cells were cultured at 37° C. in the presence of 5% CO2 and grown in McCoy's 5a medium supplemented with fetal bovine serum at a final concentration of 10% and 100 μg/mL of streptomycin and 100 U/mL penicillin.
Calu-1 cells were plated in all wells of a tissue-culture treated, 96-well plate at final counts of 5,000 cells/well in 100 μL of appropriate culture media. Cells were cultured for 24 hours after plating at 37° C. in the presence of 5% CO2.
After 24 hours, complexes containing siNA and RNAiMax were created as follows. A solution of RNAiMax diluted 33-fold in OPTI-MEM was prepared. In parallel, solutions of the siNAs for testing were prepared to a final concentration of 120 nM in OPTI-MEM. After incubation of RNAiMax/OPTI-MEM solution at room temperature for 5 min, an equal volume of the siNA solution and the RNAiMax solution were added together for each of the siNAs. […] This solution was incubated at room temperature for 20 minutes. After incubation, 20 uL of the solution was added to each of the relevant wells. The final concentration of siNA in each well was 10 nM and the final volume of RNAiMax in each well was 0.3 uL.
A series of probes and primers were used to detect the various mRNA transcripts of the genes of ICAM-1 and ICAM-2 in human cell lines (see Table 2). All the Taqman probes and primers for the experiments here-in described were supplied as pre-validated sets by Applied Biosystems, Inc., (see Table 2). The assays were performed on an ABI 7900 instrument, according to the manufacturer's instructions.
A TaqMan Gene Expression Master Mix (provided in the Cells-to-CT™, Applied Biosystems, Cat # 4399002) was used. The PCR reactions were carried out at 50° C. for 2 min, 95° C. for 20 min followed by 40 cycles at 95° C. for 15 secs and 60° C. for 1 min.
The expression level of the gene of interest and % knock-down was calculated using Comparative Ct method: […]
The non-targeting control siNA was, unless otherwise indicated, chosen as the value against which to calculate the % knock-down, because it is the most relevant control.
The specificity the six siNAs in Table 4 was also assessed. The siNAs were tested at 1 nM concentration to determine the effect of the ICAM-1 siNAs on the mRNA transcript of human ICAM-2.

Substance: 29288-DC: siNA duplex, ICAM-1 target site 2046 (h); sense B cAuuGuccucAGucAGAuA TTB; antisense UAUcuGAcuGAGGAcAAuGUU (sense CAUUGUCCUCAGUCAGAUATT; antisense UAUCUGACUGAGGACAAUGUU; sense: DNA at AGT, 2'-fluoro at CU, [invAb] at 5' end, 3' end, backbone not given here; antisense: sugars from the 5' end rrrffmmffmmmmrfmmfmmm, backbone not given here)
- % KD Human (ICAM-1 mRNA): 86 ± 3%
- IC50 (ICAM-1 mRNA): 0.215 ± 0.129 nM
- % KD ICAM-1 10 nM (ICAM-1 mRNA): 86 ± 3%
- % KD at 10 nM (ICAM-1 mRNA): 86 ± 3%
- Max % KD in DRC (ICAM-1 mRNA): 78 ± 5%
- % KD ICAM-2 1 nM [1]: −9 ± 18%

Substance: 29282-DC: siNA duplex, ICAM-1 target site 2113 (h); sense B cGcAucuGAucuGuAGucA TTB; antisense UGAcuAcAGAucAGAuGcGUU (sense CGCAUCUGAUCUGUAGUCATT; antisense UGACUACAGAUCAGAUGCGUU; sense: DNA at AGT, 2'-fluoro at CU, [invAb] at 5' end, 3' end, backbone not given here; antisense: sugars from the 5' end rrrffmfmmmffmmmfmfmmm, backbone not given here)
- % KD Human (ICAM-1 mRNA): 95 ± 2%
- IC50 (ICAM-1 mRNA): 0.086 ± 0.047 nM
- % KD ICAM-1 10 nM (ICAM-1 mRNA): 95 ± 2%
- % KD at 10 nM (ICAM-1 mRNA): 95 ± 2%
- Max % KD in DRC (ICAM-1 mRNA): 88 ± 4%
- % KD ICAM-2 1 nM [1]: 3 ± 6%

Substance: 29286-DC: siNA duplex, ICAM-1 target site 1838 (h); sense B cGGAAGAucAAGAAAuAcA TTB; antisense UGUAuuucuuGAucuuccGUU (sense CGGAAGAUCAAGAAAUACATT; antisense UGUAUUUCUUGAUCUUCCGUU; sense: DNA at AGT, 2'-fluoro at CU, [invAb] at 5' end, 3' end, backbone not given here; antisense: sugars from the 5' end rrrmffffffmmffffffmmm, backbone not given here)
- % KD Human (ICAM-1 mRNA): 89 ± 3%
- IC50 (ICAM-1 mRNA): 0.433 ± 0.468 nM
- % KD ICAM-1 10 nM (ICAM-1 mRNA): 89 ± 3%
- % KD at 10 nM (ICAM-1 mRNA): 89 ± 3%
- Max % KD in DRC (ICAM-1 mRNA): 81 ± 6%
- % KD ICAM-2 1 nM [1]: −3 ± 14%

Substance: 29285-DC: siNA duplex, ICAM-1 target site 537 (h); sense B GGAAcAAccGGAAGGuGuA TTB; antisense UACAccuuccGGuuGuuccUU (sense GGAACAACCGGAAGGUGUATT; antisense UACACCUUCCGGUUGUUCCUU; sense: DNA at AGT, 2'-fluoro at CU, [invAb] at 5' end, 3' end, backbone not given here; antisense: sugars from the 5' end rrrmffffffmmffmffffmm, backbone not given here)
- % KD Human (ICAM-1 mRNA): 85 ± 6%
- IC50 (ICAM-1 mRNA): 0.394 nM
- % KD ICAM-1 10 nM (ICAM-1 mRNA): 85 ± 6%
- % KD at 10 nM (ICAM-1 mRNA): 85 ± 6%
- Max % KD in DRC (ICAM-1 mRNA): 70 ± 15%
- % KD ICAM-2 1 nM [1]: 11 ± 7%

Substance: 29284-DC: siNA duplex, ICAM-1 target site 1141 (h); sense B cucAGucAGuGuGAccGcA TTB; antisense UGCGGucAcAcuGAcuGAGUU (sense CUCAGUCAGUGUGACCGCATT; antisense UGCGGUCACACUGACUGAGUU; sense: DNA at AGT, 2'-fluoro at CU, [invAb] at 5' end, 3' end, backbone not given here; antisense: sugars from the 5' end rrrmmffmfmffmmffmmmmm, backbone not given here)
- % KD Human (ICAM-1 mRNA): 85 ± 1%
- IC50 (ICAM-1 mRNA): 0.281 ± 0.233 nM
- % KD ICAM-1 10 nM (ICAM-1 mRNA): 85 ± 1%
- % KD at 10 nM (ICAM-1 mRNA): 85 ± 1%
- Max % KD in DRC (ICAM-1 mRNA): 73 ± 4%
- % KD ICAM-2 1 nM [1]: 6 ± 11%

Substance: 48722-DC: siNA duplex, ICAM-1 target site 2240 (h); sense B GAcAuAcAAcuGGGAAAuA TTB; antisense UAUuucccAGuuGuAuGucUU (sense GACAUACAACUGGGAAAUATT; antisense UAUUUCCCAGUUGUAUGUCUU; sense: DNA at AGT, 2'-fluoro at CU, [invAb] at 5' end, 3' end, backbone not given here; antisense: sugars from the 5' end rrrfffffmmffmfmfmffmm, backbone not given here)
- % KD Human (ICAM-1 mRNA): 92 ± 1%
- IC50 (ICAM-1 mRNA): 0.098 ± 0.05 nM
- % KD ICAM-1 10 nM (ICAM-1 mRNA): 92 ± 1%
- % KD at 10 nM (ICAM-1 mRNA): 92 ± 1%
- Max % KD in DRC (ICAM-1 mRNA): 85 ± 1%
- % KD ICAM-2 1 nM [1]: −15 ± 29%
